Article PMC7948460, “Volatile allosteric antagonists of mosquito odorant receptors inhibit human-host attraction” (The Journal of Biological Chemistry, 2020)
Several values for one entry are separate records, joined by “and”; a condition that tells them apart may be missing. Equal values may be shown once. Read-outs that look alike come from different tables or passages of the source.

Legend:
Ae. albopictus = test: Repellence bioassay, human hand landing counts; format: in vivo, Aedes albopictus
AgamORco = molecular target: T1, AgamORco (Anopheles gambiae, UniProt Q7QCC7); test: cell-based
T1 sequence (Q7QCC7 1-478): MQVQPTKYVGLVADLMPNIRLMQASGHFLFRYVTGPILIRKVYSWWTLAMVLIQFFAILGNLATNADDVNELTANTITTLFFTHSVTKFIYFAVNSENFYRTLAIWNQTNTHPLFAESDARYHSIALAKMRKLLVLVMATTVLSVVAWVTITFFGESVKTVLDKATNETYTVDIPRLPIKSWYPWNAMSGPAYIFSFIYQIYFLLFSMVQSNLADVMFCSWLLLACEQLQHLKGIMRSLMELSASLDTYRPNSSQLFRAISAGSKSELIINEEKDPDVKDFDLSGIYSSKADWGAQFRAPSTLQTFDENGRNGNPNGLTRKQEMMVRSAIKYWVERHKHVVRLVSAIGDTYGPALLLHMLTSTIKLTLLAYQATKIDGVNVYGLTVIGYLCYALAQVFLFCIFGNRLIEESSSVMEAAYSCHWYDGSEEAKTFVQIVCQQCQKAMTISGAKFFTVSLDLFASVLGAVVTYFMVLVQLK

AaegORco = molecular target: T2, AaegORco (Aedes aegypti, UniProt Q178U6); test: Two-microelectrode voltage-clamp recordings of Xenopus laevis oocytes expressing AaegORco, VUAA1-induced currents; format: cell-based; settings: 200 μM VUAA1 with equimolar compound; for Normalized response (%) of AaegORco to VUAA1 in combination with compound: printed in picture Fig. 4B
T2 construct: expressed in transfected cells; host or cells: Xenopus laevis oocytes microinjected with cRNA transcribed from the pSP64tRFA vector
T2 sequence (Q178U6 1-478): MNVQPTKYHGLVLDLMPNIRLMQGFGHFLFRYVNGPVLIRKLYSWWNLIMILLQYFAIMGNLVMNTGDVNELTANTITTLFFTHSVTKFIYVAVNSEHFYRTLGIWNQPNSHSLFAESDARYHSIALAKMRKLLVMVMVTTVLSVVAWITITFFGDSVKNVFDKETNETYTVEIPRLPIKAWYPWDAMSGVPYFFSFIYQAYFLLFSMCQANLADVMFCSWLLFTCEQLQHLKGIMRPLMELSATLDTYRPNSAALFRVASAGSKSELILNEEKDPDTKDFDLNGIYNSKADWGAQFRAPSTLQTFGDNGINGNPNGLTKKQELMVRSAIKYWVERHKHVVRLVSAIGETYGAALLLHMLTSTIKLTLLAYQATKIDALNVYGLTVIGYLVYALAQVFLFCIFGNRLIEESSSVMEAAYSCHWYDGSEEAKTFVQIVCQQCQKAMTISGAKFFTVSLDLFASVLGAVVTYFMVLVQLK
Description: Across all treatments, we observed a consistent increase in the third VUAA1-induced response relative to the first and second VUAA1 administrations (Fig. 4A). For this reason, the inhibition level (Fig. 4B) was calculated by normalizing the response amplitude elicited by the second stimulation, to the average current responses elicited by the first and last VUAA1 stimulations.
In vitro transcription and two-microelectrode voltage-clamp electrophysiological recordings were performed as described ([62]). Briefly, ORco of Ae. aegypti (AaegORco; GenBank: BK006142.1) was synthesized using the mMESSAGE mMACHINE SP6 kit (ThermoFisher Scientific) from the linearized pSP64tRFA expression vector. The harvested X. laevis oocytes were manually separated from the ovaries prior to collagenase treatment (8 mg/ml, 30 min, 18 °C) in order to remove the follicular layer. Stage V–VI oocytes were rinsed in washing solution (96 mM NaCl, 2 mM KCl, 5 mM MgCl2, and 5 mM Hepes, pH 7.6) and microinjected with a mixture of 1 μl AaegOrco (3 μg/μl) and 2 μl of double-distilled water. Injected oocytes were incubated at 18 °C for 3 days in Ringer’s solution (96 mM NaCl, 2 mM KCl, 5 mM MgCl2, 0.8 mM CaCl2, and 5 mM Hepes, pH 7.6) supplemented with 5% dialyzed horse serum, 50 μg/ml tetracycline, 100 μg/ml streptomycin, and 550 μg/ml sodium pyruvate. Whole-cell currents were recorded using the two-microelectrode voltage-clamp technique. During recording sessions, the holding potential was maintained at −80 mV using an OC-725C oocyte clamp (Warner Instruments, LLC). Oocytes were placed in a RC-3Z oocyte recording chamber (Warner Instruments) and exposed for 8 s to 200 μM VUAA1 (Innovapharm Ltd), 2,4-octadienal predominantly trans (Sigma-Aldrich), or carvacrol (Sigma-Aldrich). All compounds were solubilized in 200 μl of DMSO prior to the dilutions in the Ringer’s solution. Currents were allowed to return to baseline between odorant applications. Data acquisition and concentration–response analyses were carried out with a Digidata 1550A and the pCLAMP10 software (Molecular Devices). Statistical significance was evaluated with one-way ANOVA followed by Tukey's post test.

Bm5 cells = test: Toxicity to the AgamORco/Photina-expressing Bm5 cells during dose-response evaluation; format: cell-based; settings: Bombyx mori, Bm5 cells stably expressing AgamORco and Photina
[1] = 0.01 μL equivalent per cm^2, 5 min
[2] = 0.04 μL equivalent per cm^2, 5 min
[3] = 0.2 μL equivalent per cm^2, 5 min
[4] = 50 μM ORcoRAM2 (OA), read-out: IC50 in binding competition assay
[5] = 50 μM ORcoRAM2 (OA), read-out: pIC50 in binding competition assay (converted)
[6] = 100 μM ORcoRAM2 (OA), read-out: IC50, inhibition of OA-dependent AgamORco channel activity
[7] = 100 μM ORcoRAM2 (OA), read-out: pIC50, inhibition of OA-dependent AgamORco channel activity (converted)
[8] = 150 μM ORcoRAM2 (OA), read-out: IC50 in binding competition assay
[9] = 150 μM ORcoRAM2 (OA), read-out: pIC50 in binding competition assay (converted)

Row | EC50 (AgamORco; absence of antagonist, read-out: EC50 of ORco agonist on AgamORco) | SMILES | Mean % repellency (Ae. albopictus; [1]) | Average landings (+ st. dev) (Ae. albopictus; 0.01 μL per cm2, 5 min) | Mean % repellency (Ae. albopictus; [2]) | Average landings (+ st. dev) (Ae. albopictus; 0.04 μL per cm2, 5 min) | Mean % repellency (Ae. albopictus; [3]) | Average landings (+ st. dev) (Ae. albopictus; 0.2 μL per cm2, 5 min) | IC50 (AgamORco; [4]) | IC50 (AgamORco; [5]) | IC50 (AgamORco; [6]) | IC50 (AgamORco; [7]) | IC50 (AgamORco; [8]) | IC50 (AgamORco; [9]) | Reduction of VUAA1-activated currents (AaegORco) | Normalized response (%) of AaegORco to VUAA1 in combination with compound (AaegORco) | Concentrations toxic to the cells (Bm5 cells)
1 |  | CCN(CC)C(=O)c1cccc(C)c1 [DEET, N,N-Diethyl-3-methylbenzamide, reference compound] | 96.7% and 96.7 ± 2.6% | 1.8±1.4 | 100 ± 0% | 0±0 | 100 ± 0% | 0±0 |  |  |  |  |  |  |  |  | 
2 |  | CC(C)c1ccc(CO)cc1 [CA, Cumin alcohol] | 63.2% and 63.2 ± 11.8% | 20.1±6.5 | 78 ± 7% | 11.8±3.7 | 99.8 ± 0.7% | 0.1±0.4 |  |  |  |  |  |  |  |  | 
3 |  | Cc1ccc(C(C)C)cc1O [CRV, Carvacrol] | 67.8% and 67.8 ± 9% | 17.6±4.9 | 99.1 ± 2% | 0.5±1.1 | 99.8 ± 0.7% | 0.1±0.4 | 26.3 µM | 26.3 µM | 23.4 µM | 23.3 µM | 28.4 µM | 28.4 µM | ~85% | -84.8% | above 250 μM
4 |  | CC(C)OC(=O)C=Cc1ccccc1 [IPC, Isopropyl cinnamate, reference compound] |  |  |  |  | 96 ± 1.6% | 2.1±0.8 |  |  |  |  |  |  |  |  | 
5 |  | C=CC(C)(CCC=C(C)C)OC(C)=O (stereo not drawn) [LA, Linalyl acetate] |  |  |  |  | 72.3 ± 15.6% | 14.6±8.1 |  |  |  |  |  |  |  |  | 
6 |  | CC1=CCC2[C@H](C1)C2(C)C (stereo partly drawn) [CAR, (1S)-3-Carene] |  |  |  |  | 89.8 ± 4.3% | 5.4±2.3 |  |  |  |  |  |  |  |  | 
7 | 91.3 µM and 91.9 µM and 91 µM | CCc1ccc(NC(=O)CSc2nnc(-c3ccccn3)n2CC)cc1 [ORcoRAM2, reference compound] |  |  |  |  |  |  |  |  |  |  |  |  |  |  | 
8 |  | CCC/C=C/C=C/C=O [OCT, (2E,4E)-2,4-Octadienal] | 13.8% and 13.8 ± 12.8% | 47.1±7.0 | 97.9 ± 2.7% | 1.1±1.5 | 100 ± 0% | 0±0 | 41.8 µM | 41.8 µM | 59.8 µM | 59.8 µM | 117 µM | 117 µM | approximately 60% | -59.5% | 
